Paper PMC2680243 (Cancer research, 2008)

Molecular target: T1, Cdc25A (Homo sapiens, UniProt P30304)
T1 sequence (P30304 1-524): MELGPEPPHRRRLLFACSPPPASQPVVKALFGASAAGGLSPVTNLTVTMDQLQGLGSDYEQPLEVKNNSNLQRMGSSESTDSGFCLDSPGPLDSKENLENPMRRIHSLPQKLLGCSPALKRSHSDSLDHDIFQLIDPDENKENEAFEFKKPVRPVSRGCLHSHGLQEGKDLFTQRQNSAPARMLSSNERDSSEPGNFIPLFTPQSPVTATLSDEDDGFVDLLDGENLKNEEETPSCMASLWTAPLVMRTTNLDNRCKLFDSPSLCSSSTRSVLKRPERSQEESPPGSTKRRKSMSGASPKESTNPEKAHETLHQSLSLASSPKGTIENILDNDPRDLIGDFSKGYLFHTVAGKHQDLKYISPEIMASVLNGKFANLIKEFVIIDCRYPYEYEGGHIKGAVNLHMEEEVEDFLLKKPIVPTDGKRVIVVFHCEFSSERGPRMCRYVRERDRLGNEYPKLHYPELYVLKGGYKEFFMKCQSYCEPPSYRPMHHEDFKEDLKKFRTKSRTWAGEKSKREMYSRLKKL
Test: OMFP phosphatase assay, […] min pretreatment
Type: biochemical

IC50: 22.5 ± 6.2 µM
Structure (SMILES): CCOC(=O)[C@@H](N)CSN=O [SNCEE, S-nitrosocysteine ethyl ester]
